We go through eight molecules from ChEMBL document CHEMBL1201862, “PubChem BioAssay data set” (2004).

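Compound exposure: 48 hours, 5 concentrations, 96-well plates. Abbreviation: GI50, concentration required for 50% inhibition of growth.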 Activity calls are given as the source filed them. No stated cut-off is given here; in the data, active = GI50 up to about 1.1 µM and inactive = higher.

Test systems include KM12; IGROV-1; Hs-578T; SK-MEL-2; U-251; UO-31; 786-0; SF-539; BT-549; SF-295; SNB-75; COLO 205; T47D; UACC-62; SW-620; HCT-15; SK-MEL-5; CAKI-1; NCI-H226; LOX IMVI.
Holding throughout (assay): NCI anticancer screen, dose series, 48 h

Turning to `CCCN(CCC)C1CCc2c(ccc3cc[nH]c23)C1` (stereo not given), the GI50 in the test with KM12 is 60.4 µM (inactive); with IGROV-1 it was 62.7 µM (inactive); with Hs-578T it was > 100 µM (inactive); in the test on SK-MEL-2 it was > 100 µM (inactive); in the test with U-251 it was > 100 µM (inactive); in the test on UO-31 it was 49 µM (inactive). Moreover, the GI50 in the test with 786-0 is > 100 µM (inactive); with SF-539, > 100 µM (inactive); in the test on BT-549 it was > 100 µM (inactive); in the test with SF-295 it was > 100 µM (inactive); in the test on SNB-75, 25.6 µM (inactive); in the test on COLO 205, 29.8 µM (inactive). The GI50 with T47D was > 100 µM (inactive); in the test on UACC-62, 50.9 µM (inactive); in the test on SW-620, > 100 µM (inactive); in the test on HCT-15, 48.1 µM; with SK-MEL-5, 20.7 µM (inactive); in the test on CAKI-1, > 100 µM (inactive). In the test on NCI-H226, the GI50 was > 100 µM (inactive).
Take `COc1ccc2nc3cc(Cl)ccc3c(NCCCCCC(=O)NC(COc3cnc4c(ccc5cccnc54)c3)COc3cnc4c(ccc5cccnc54)c3)c2c1`: the GI50 with KM12 is 5.92 µM (inactive); with IGROV-1 it was 10 µM (inactive); with Hs-578T it was 50.8 µM (inactive); in the test on SK-MEL-2, 14.1 µM (inactive); in the test on U-251, 8.53 µM (inactive); with UO-31, 74.5 µM (inactive). Also, the GI50 in the test with 786-0 was 11 µM (inactive); with SF-539, 10.9 µM (inactive); in the test on BT-549, 10.5 µM (inactive); in the test with SF-295, 20.8 µM (inactive); in the test with SNB-75, 0.0313 µM (active); in the test on COLO 205 it was 2.79 µM (inactive). For the same molecule, the GI50 in the test with T47D is 7.29 µM (inactive); in the test on UACC-62 it was 21.4 µM (inactive); in the test on SW-620, 10.5 µM (inactive); in the test with HCT-15, more than 100 µM; in the test on LOX IMVI it was 3.72 µM (inactive); in the test on CAKI-1 it was 36.1 µM (inactive). In addition, the GI50 in the test on NCI-H226 is 4.73 µM (inactive).
Consider `Nc1nc(CCl)nc(N2CCOCC2)n1`, for which the GI50 with KM12 was 32.1 µM (inactive); in the test with IGROV-1, 14.3 µM (inactive); in the test on Hs-578T it was 38.1 µM (inactive); with SK-MEL-2, > 100 µM (inactive); with U-251, 22.4 µM (inactive); in the test on UO-31, 17.3 µM (inactive). The GI50 in the test with 786-0 was 14 µM (inactive); with SF-539, 22.8 µM (inactive); with BT-549 it was 31.7 µM (inactive); in the test on SF-295 it was 29.8 µM (inactive); in the test with SNB-75 it was 33.5 µM (inactive); in the test on COLO 205 it was 17.9 µM (inactive). The GI50 with T47D was 55.3 µM (inactive); with UACC-62 it was 15.8 µM (inactive); with SW-620, 24.4 µM (inactive); in the test on HCT-15, 16 µM; in the test on SK-MEL-5, 20.1 µM (inactive); with CAKI-1 it was 16.5 µM (inactive). In addition, the GI50 in the test with NCI-H226 was 37.4 µM (inactive).
Take `S=C1/C(=N/c2ccccc2)N(c2ccccc2)/C(=N\c2cccc[n+]2Cc2ccccc2)N1c1ccccc1`: the GI50 in the test with KM12 was 16.6 µM (inactive); in the test with IGROV-1 it was 22.5 µM (inactive); in the test with Hs-578T, 33.9 µM (inactive); with SK-MEL-2, 24.3 µM (inactive); with U-251 it was > 10 µM (inactive); with UO-31, 16.4 µM (inactive). In addition, the GI50 in the test with 786-0 was 15.8 µM (inactive); with SF-539, 16.3 µM (inactive); with BT-549, 14.3 µM (inactive); with SF-295 it was 13.4 µM (inactive); in the test with SNB-75 it was < 0.01 µM (active); in the test on COLO 205 it was 17.1 µM (inactive). Moreover, the GI50 in the test with T47D is 22.8 µM (inactive); in the test with UACC-62, 11.9 µM (inactive); in the test with SW-620, 13.9 µM (inactive); with HCT-15 it was 21.4 µM; in the test with SK-MEL-5, 12.8 µM (inactive); in the test on CAKI-1, 18.9 µM (inactive). Also, the GI50 in the test with NCI-H226 is 19.3 µM (inactive).
Take `NC1(C(=O)O)CCCC1C(=O)O` (stereo not given): the GI50 in the test on KM12, in the test on IGROV-1, in the test on Hs-578T, with SK-MEL-2, in the test with U-251 and in the test on UO-31 was > 100 µM (inactive) in each case. The GI50 in the test with 786-0, in the test with SF-539, with BT-549, in the test with SF-295, in the test on SNB-75 and in the test with COLO 205 was > 100 µM (inactive) each time. Also, the GI50 in the test with T47D is > 100 µM (inactive); with UACC-62, > 100 µM (inactive); in the test on SW-620 it was > 100 µM (inactive); in the test on HCT-15, more than 100 µM; with LOX IMVI, > 100 µM (inactive); in the test with SK-MEL-5, > 100 µM (inactive). Besides, the GI50 in the test with CAKI-1 is > 100 µM (inactive).
In the case of `Cc1cc(N(CCC#N)CCC#N)ccc1C(/N=N\c1ccc(C(=O)O)cc1)=N\NC(=O)c1cc(Cl)ccc1O`, the GI50 with KM12 was 28.8 µM (inactive); in the test with IGROV-1, 24.7 µM (inactive); with Hs-578T it was 19.7 µM (inactive); with SK-MEL-2, 83.6 µM (inactive); in the test on U-251, 24.9 µM (inactive); in the test with UO-31 it was 22.1 µM (inactive). The GI50 with 786-0 was 19.3 µM (inactive); in the test on SF-539, > 10 µM (inactive); with BT-549, 45.9 µM (inactive); in the test on SF-295, 12.4 µM (inactive); in the test with SNB-75 it was 22.6 µM (inactive); in the test with COLO 205, > 100 µM (inactive). Moreover, the GI50 is 40.7 µM (inactive) with T47D; 31.1 µM (inactive) in the test on UACC-62; more than 100 µM in the test on HCT-15; 78.7 µM (inactive) in the test on SK-MEL-5; 46.6 µM (inactive) in the test on CAKI-1; 18.7 µM (inactive) with NCI-H226.
Regarding `COc1cc2c(cc1OC)C1=Cc3ccc(OC)c(OC)c3C(C#N)N1CC2` (stereo not given), the GI50 in the test with KM12 was 21.1 µM (inactive); with Hs-578T it was 35.8 µM (inactive); with SK-MEL-2, 19.7 µM (inactive); in the test with U-251 it was 21.6 µM (inactive); in the test with UO-31, > 100 µM (inactive); with 786-0, 78.5 µM (inactive). The GI50 with SF-539 was 13.8 µM (inactive); in the test with BT-549, 14.6 µM (inactive); in the test with SF-295 it was 37.1 µM (inactive); in the test with SNB-75, 5.22 µM (inactive); in the test with COLO 205 it was 18.2 µM (inactive); in the test with T47D, 9.2 µM (inactive). The GI50 with UACC-62 is 17.1 µM (inactive); with SW-620, 47.6 µM (inactive); with HCT-15 it was more than 100 µM; in the test with SK-MEL-5, 17.2 µM (inactive); with CAKI-1, > 100 µM (inactive); in the test on NCI-H226, > 100 µM (inactive).
Regarding `O=[N+]([O-])c1ccc2c(c1)n1c(N3CCCC3)[n+]3ccccc3c1c1c3ccccn3c(N3CCCC3)[n+]21.[O-][Cl+3]([O-])([O-])[O-].[O-][Cl+3]([O-])([O-])[O-]`, the GI50 is > 100 µM (inactive) in the test with KM12; > 100 µM (inactive) with IGROV-1; 83.2 µM (inactive) in the test on Hs-578T; > 100 µM (inactive) with SK-MEL-2; 36.7 µM (inactive) in the test on U-251; > 100 µM (inactive) in the test with 786-0. Further, the GI50 in the test on SF-539 was 39.5 µM (inactive); in the test with BT-549, > 100 µM (inactive); in the test on SF-295 it was 61.4 µM (inactive); in the test on SNB-75, 44 µM (inactive); in the test on COLO 205 it was 54 µM (inactive); with T47D, > 100 µM (inactive). The GI50 in the test with UACC-62 is > 100 µM (inactive); in the test on SW-620, 65.9 µM (inactive); in the test with HCT-15 it was more than 100 µM; with LOX IMVI it was > 100 µM (inactive); in the test with SK-MEL-5, > 100 µM (inactive); in the test with CAKI-1, > 100 µM (inactive). Also, the GI50 in the test on NCI-H226 is 44.3 µM (inactive).
